Assay: xn = mol fraction of the nth substance listed

CC(CC(C)(C)C)CP(=O)(O)CC(C)CC(C)(C)C (stereo not given) + c1ccccc1
298.15 K, 101 kPa
Details	viscosity [mPa·s]
x1 = 0.0058	0.631
x1 = 0.0104	0.661
x1 = 0.0122	0.678
x2 = 0.1178	93.82
x2 = 0.2304	71.32
x2 = 0.3732	46.06
x2 = 0.5517	20.77
x2 = 0.6956	8.438
x2 = 0.784	4.43
x2 = 0.7966	4.061
x2 = 0.8411	2.952
x2 = 0.8809	2.165
x2 = 0.8838	2.106
x2 = 0.9333	1.332
x2 = 0.9375	1.29
x2 = 0.9656	0.94
x2 = 0.9738	0.83

Oc1ccc(Cl)cc1 + CCCCNCCCC
298.16 K, 101 kPa
Details	viscosity [mPa·s]
x1 = 0.4053	3.541
x1 = 0.5045	11.99
x1 = 0.5585	31.68
x1 = 0.6051	56.94
x1 = 0.6526	126.7
x1 = 0.6871	181.4
x1 = 0.7235	251.1
x1 = 0.7533	273.6
x1 = 0.7813	263
x1 = 0.8104	221
x1 = 0.84	163.2
x1 = 0.8686	111.1
x1 = 0.8961	79.37
x1 = 0.9256	53.62
x1 = 0.9749	26.85

CCOCCO + NCCO
viscosity [mPa·s], 101 kPa
Details	293.15 K	298.15 K	303.15 K	308.15 K	313.15 K	318.15 K	323.15 K
x2 = 0.141	2.898	2.544	2.246	1.998	1.786	1.605	1.449
x2 = 0.387	5.417	4.594	3.935	3.401	2.963	2.6	2.297
x2 = 0.596	9.217	7.588	6.312	5.319	4.527	3.89	3.371
x2 = 0.775	14.17	11.37	9.259	7.642	6.388	5.402	4.614
x2 = 0.93	20.26	15.94	12.77	10.37	8.539	7.122	6.005

CC(CC(C)(C)C)CP(=O)(O)CC(C)CC(C)(C)C (stereo not given) + C1CCCCC1
298.15 K, 101 kPa
Details	viscosity [mPa·s]
x1 = 0.007	0.95
x1 = 0.0117	0.998
x1 = 0.015	1.052
x2 = 0.1098	97.92
x2 = 0.1822	85
x2 = 0.3325	59.34
x2 = 0.505	32.7
x2 = 0.6519	16.56
x2 = 0.7568	8.757
x2 = 0.7617	8.623
x2 = 0.851	4.302
x2 = 0.8636	3.779
x2 = 0.8895	3.032
x2 = 0.9226	2.188
x2 = 0.9255	2.102
x2 = 0.9573	1.489
x2 = 0.9686	1.301

Cc1ccc(NC(=O)NCCCCCCCCCCCCCCC(C)C)cc1NC(=O)NCCCCCCCCCCCCCCC(C)C + CCCCC
Details	viscosity [mPa·s]
293.15 K, 100 kPa, x1 = 0.0001	2

CNCCO + CS(C)=O
viscosity [mPa·s], 101.3 kPa
Details	x1 = 0.1038	x1 = 0.2066	x1 = 0.3084	x1 = 0.4095	x1 = 0.5101	x1 = 0.6095	x1 = 0.7084	x1 = 0.8064	x1 = 0.9035
293.15 K	2.286	2.433	2.768	3.144	3.804	4.512	5.755	7.432	9.786
298.15 K	2.054	2.173	2.45	2.754	3.293	3.852	4.836	6.143	7.947
303.15 K	1.858	1.956	2.186	2.435	2.877	3.327	4.116	5.151	6.549
308.15 K	1.691	1.771	1.964	2.168	2.537	2.905	3.542	4.368	5.476
313.15 K	1.547	1.613	1.776	1.946	2.254	2.555	3.077	3.745	4.627
318.15 K	1.419	1.481	1.615	1.755	2.016	2.264	2.697	3.241	3.954
323.15 K	1.309	1.361	1.469	1.594	1.815	2.044	2.383	2.83	3.41

CCOCCO + Nc1ccccc1
303.15 K, 101 kPa
Details	viscosity [mPa·s]
x2 = 0.1062	2.266
x2 = 0.2109	2.394
x2 = 0.3142	2.523
x2 = 0.4162	2.74
x2 = 0.5167	2.94
x2 = 0.616	3.114
x2 = 0.7139	3.277
x2 = 0.8105	3.435
x2 = 0.9059	3.595

C=C(C)C(=O)OCCO + O=C1CCCCC1
viscosity [mPa·s], 101 kPa
Details	x2 = 0.1	x2 = 0.2	x2 = 0.3	x2 = 0.4	x2 = 0.5	x2 = 0.6	x2 = 0.6999	x2 = 0.8	x2 = 0.9
298.15 K	5.035	4.22	3.579	3.213	2.928	2.661	2.319	2.089	2.06
308.15 K	3.747	3.184	2.768	2.512	2.282	2.045	1.856	1.707	1.695
318.15 K	2.881	2.474	2.2	2.012	1.853	1.678	1.54	1.439	1.421

CCOCCO + CCCCCCCCCCCC
viscosity [mPa·s], 101.33 kPa
Details	x1 = 0.1001	x1 = 0.1987	x1 = 0.3009	x1 = 0.3972	x1 = 0.5014	x1 = 0.5996	x1 = 0.6933	x1 = 0.7988	x1 = 0.8984
298.15 K	1.288	1.294	1.321	1.339	1.379	1.412	1.453	1.529	1.636
303.15 K	1.171	1.174	1.195	1.223	1.256	1.284	1.317	1.387	1.465
308.15 K	1.075	1.076	1.09	1.115	1.138	1.166	1.191	1.254	1.316
313.15 K	0.986	0.987	0.997	1.02	1.045	1.063	1.082	1.139	1.191
